Experimental data reported in patent US20220204509A1, “PYRIMIDO FIVE-MEMBERED HETEROCYCLIC COMPOUND AND USE THEREOF AS MUTANT IDH2 INHIBITOR” (EPITAS BIOSCIENCES (SHANGHAI) CO., LTD., priority 2019, published 2022).
Numbering of substitutions follows the chain as printed.

Assays:
IDH2/WT = target: T1, IDH2/WT (Homo sapiens, UniProt P48735); assay: Determination of the selectivity of compounds to wild-type IDH2 (IDH2/WT); assay type: biochemical; conditions: Inhibitory activity on IDH2/WT; pre-incubated at 25° C. for 16 hours
T1 construct: made in house; host or cells: E. coli
T1 sequence (P48735 40-452): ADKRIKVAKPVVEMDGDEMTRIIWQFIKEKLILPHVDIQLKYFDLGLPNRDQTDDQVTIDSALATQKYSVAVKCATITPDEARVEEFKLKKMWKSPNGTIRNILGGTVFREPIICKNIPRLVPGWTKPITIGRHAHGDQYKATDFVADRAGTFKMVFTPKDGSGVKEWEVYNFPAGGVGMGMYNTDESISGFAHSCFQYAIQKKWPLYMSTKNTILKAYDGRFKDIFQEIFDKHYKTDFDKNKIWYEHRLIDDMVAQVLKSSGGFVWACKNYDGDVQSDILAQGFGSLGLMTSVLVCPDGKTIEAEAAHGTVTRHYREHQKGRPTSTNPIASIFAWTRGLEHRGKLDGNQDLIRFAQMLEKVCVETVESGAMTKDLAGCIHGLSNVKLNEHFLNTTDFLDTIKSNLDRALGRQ
Procedure: The compound was incubated with IDH2/WT and NADP, and then the reaction was initiated by adding isocitrate. After a certain time of reaction under linear conditions, lipoamide dehydrogenase and resazurin were added to detect the amount of fluorescent substances. In this experiment, NADP was reduced to NADPH. The latter reduced resazurin to highly fluorescent resorufin under the action of lipoamide dehydrogenase. The production of resorufin was detected to quantify the amount of cofactor NADPH generated after a specific reaction time, so as to calculate the compound's inhibitory effect on IDH2/WT.
Specifically, in a 96-well plate, in a total reaction volume of 50 μL, a mixture of 0.6 nM IDH2/WT, serially diluted inhibitors, and 50 μM NADP in a reaction buffer containing Tris-HCl 20 mM (pH 7.5), 150 mM NaCl, 10 mM MgCl2, 10% Glycerol, 0.03% BSA, and 2.5 mM β-mercaptoethanol, was pre-incubated at 25° C. for 16 hours. Isocitrate was added to 50 μM and the reaction was carried out at 25° C. for 30 minutes. Then 25 μL of a mixed solution (lipoamide dehydrogenase 36 μg/mL, resazurin 30 μM) prepared with the above reaction buffer was added to convert resazurin to resorufin to measure the NADPH produced. After 10 minutes of incubation at 25° C., the fluorescence value was measured by Tecan INFINITE F FLEX under Ex544/Em590. The enzyme activity was measured at 10 concentrations for each compound, and multiple background holes without enzyme and full enzyme activity holes without compound were set up in the reaction. The concentration of dimethyl sulfoxide in the system was less than or equal to 2%. The value of IC50 was obtained by the formula: Y=100/(1+10^((Log IC50−X)*HillSlope)) using XLFit5 software (IDBS Software). In the method, the multi-well plate was purchased from Thermo Fisher Scientific, NADP, α-KG, lipoamide dehydrogenase, and resazurin were purchased from Shenggong Bioengineering Co., Ltd., and IDH2/WT was obtained by purification after E. coli overexpression.

IDH2/R140Q [1] = target: T2, IDH2/R140Q (Homo sapiens, UniProt P48735, R140Q); assay: Determination of the inhibitory activity of the compounds on IDH2/R140Q (NADPH reduction, resazurin/lipoamide dehydrogenase detection); assay type: biochemical; parameters: purchased Abcam ab198153; conditions: IDH2/R140Q inhibitory activity; pre-incubated at 25° C. for 16 hours; read-out: IC50
T2 sequence (P48735 40-452 R140Q): T1 sequence (P48735 40-452) with R101Q
Procedure: In this example, the inhibitory activity of a compound on IDH2/R140Q was determined by measuring the reduction of the cofactor NADPH. The compound was incubated with IDH2/R140Q and NADPH, and then the reaction was initiated by adding α-KG. After a certain time of reaction under linear conditions, lipoamide dehydrogenase and the corresponding substrate resazurin were added for detection. Lipoamide dehydrogenase terminated the IDH2/R140Q reaction bγ subtracting the available cofactor NADPH. It oxidized NADPH to NADP, and reduced resazurin to highly fluorescent resorufin. The production of resorufin was detected to quantify the amount of cofactor NADPH remaining after a specific reaction time.
Then 25 μL of a stop mixed solution (lipoamide dehydrogenase 36 μg/mL, resazurin 30 μM) prepared with the above reaction buffer was added to convert resazurin to resorufin to measure the remaining NADPH. After 10 minutes of incubation at 25° C., the fluorescence value was measured by Tecan […] […] The enzyme activity was measured at 10 concentrations for each compound, and multiple background holes without enzyme and full enzyme activity holes without compound were set up in the reaction. The concentration of dimethyl sulfoxide in the system was less than or equal to 2%. […] The multi-well plate in this example was purchased from Thermo Fisher Scientific, NADPH, α-KG, lipoamide dehydrogenase, and resazurin were purchased from Shenggong Bioengineering Co., Ltd., and IDH2/R140Q was purchased from Abcam (ab198153).

IDH2/R140Q [2] = target: T2, IDH2/R140Q; assay: Inhibition of mutant IDH2 activity at the cell level (extracellular 2-HG, U87MG overexpressing IDH2/R140Q); assay type: cell-based; conditions: U87MG overexpressing IDH2/R140Q; 2-HG in medium after 24 hours of culturing with compound; read-out: IC50
Procedure: 2-hydroxyglutarate dehydrogenase (2HGDH) can reduce NAD+ to NADH in the presence of 2-HG. The latter can be quantitatively detected by diaphorase and its substrate Resazurin.
The glioma cells U87MG overexpressing IDH2/R140Q mutation were cultured in 1% sodium pyruvate high-sugar MEM, 10% FBS, and placed in a CO2 incubator (37° C., 5% CO2, 95% air) for cultivation.
The cells were digested with trypsin and seeded in a 96-well plate at a density of 1×10^4 with a medium of 200 μL and cultured in a 37° C. incubator overnight. The next day, the test compound was added to a final concentration of 0.1% for DMSO. […] The protein and other components in the medium that may interfere with the results were filtered, and the follow-up method was used to detect the content of 2-HG. 50 uL CellTiter-Glo (purchased from Promega) was added to the 96-well plate with the remaining 100 μL of medium to detect cell survival;
Extracellular 2-HG detecting system:
(1) 50 μL reaction system: reaction buffer (50 mM Tris pH7.5, 100 mM NaCl, 20 mM MgCl2, 0.05% BSA), in which the final concentration of NAD+ was 40 μM, the final concentration of 2HGDH was 20 nM, and the test sample was added to 5 μL of medium; the reaction solution was mixed and centrifuged, and the reaction was carried out for 1 hour at 25° C. in the dark;
Preparation of 2-HG standard curve: a 2-HG stock solution was diluted to 20 μM with reaction buffer, and a 2-fold gradient diluting was performed for a total of 6 points. Afterwards, the above-mentioned 2-HG was measured according to the extracellular 2-HG detecting system, and a standard curve was calculated and drawn.
Calculation of extracellular 2-HG content:
The fluorescence value obtained in the extracellular 2-HG detecting system was calculated using the 2-HG standard curve to calculate the content of 2-HG in the medium, and DMSO was used as a negative control to calculate the compound's inhibition against IDH2/R140Q mutation producing 2-HG activity.

IC50 (IDH2/WT): > 5000 nM | IC50 (IDH2/R140Q [1]): < 100 nM | IC50 (IDH2/R140Q [2]): 100 to 1000 nM
Compound: Cc1cc2c(NC3CCCC3)nc(-c3ccccc3)nc2[nH]1 [Compound 36, N-cyclopentyl-6-methyl-2-phenyl-7H-pyrrolo[2,3-d]pyrimidin-4-amine]
